Laboratory results taken from US20070105779A1, “Isolated, ssx-2 and ssx-2 related peptides useful as hla binders and ctl epitopes, and uses thereof” (priority 2002, published 2007).
Values joined by “and” are separate entries in the source; they are usually repeats but may differ in a detail not shown here. Equal values may be shown once. No end group written: not given here.

What was measured:
T cell clone LAU 50/4D7 = experiment: 51Cr release assay, T2 cells pulsed with serial dilutions of peptide, recognition by CTL clone LAU 50/4D7; assay type: cell-based, human; conditions: for EC50: T2 cells pulsed with peptide, read-out: 50% maximal lysis; for recognition by CTL clone LAU 50/4D7 (in words): 51Cr release assay
Experimental: CTL clone LAU 50/4D7 was used in a ^51Cr release assay using standard methods. In brief, cells of target cell line Me275, which is a melanoma line derived from the same patient as was LAU 50/4D7, were labeled with ^51Cr for one hour at 37° C., as were control cells “T2.” This line, more accurately referred to as “CEMx721.T2,” is described by Salter, et al., Immunogenetics 21:235-248 (1985).
Cells were washed, three times, and then were incubated with the LAU 50/4D7 cells, at various effector:target ratios (0.1/1, 1/1, 10/1, 100/1) Four hours after incubation at 37° C., chromium in the supernatant was measured. Percent specific lysis was calculated as: [formula]
To determine T cell recognition of the peptides, standard ^51Cr release assays were performed using T2 cells pulsed with serial dilutions of each peptide. The peptide dose required to induce half maximal lysis was determined.

HLA-A2 = target: T1, HLA-A2 (Homo sapiens, UniProt P04439, D140Y/D185E/D98H/E176V/E277Q/G131W/G231S/I119V/I121R/I166T/I218V/L300P/L318F/N151K/N90K/P208A/P217A/Q86G/Q94H/R138H/R169H/T345S); experiment: functional competition assay for peptide binding to HLA-A2 (inhibition of tyrosinase 368-376 recognition by CTL clone LAU 156/34 on T2 cells); assay type: cell-based; conditions: for IC50: competitor peptide concentration for 50% inhibition of target cell lysis
T1 construct: using T2 cells, because these express HLA-A2; endogenous in cells; host or cells: T2 cells
Experimental: T cell recognition by clone LAU 50/4D7 and binding to HLA-A2 by these peptides were determined experimentally. Peptide binding to HLA-A2 was determined in a functional competition assay.

T cell clone LAU50/4D7 = experiment: lysis assay, T2 cells pulsed with 1 μM peptide, T cell clone LAU50/4D7; assay type: cell-based, human; conditions: peptide 1 μM, 37° C. 1 hour, T2 targets, 4 hours with T cells
Experimental: In these assays, T2 cells were used as the target, and were incubated with each of the listed peptides, at a concentration of 1 μM, at 37° C. for 1 hour. The T2 cells were then washed to remove excess peptides, and the T cells were incubated with the peptide pulsed target T2 cells for 4 hours at 37° C.

LAU 50/4D7 = experiment: 51Cr release assay with twelve known HLA-A2 binders, peptide specificity of LAU 50/4D7; assay type: cell-based, human; conditions: HLA-A2+ target cells, peptide added after 51Cr labeling
Experimental: In these assays, following ^51Cr labeling of the HLA-A2^+ target cells, peptides were added and then lysis was determined, as described supra.

[1] = relative to SEQ ID NO: 1 (=1), peptide dose for half maximal lysis, T2 cells, clone LAU 50/4D7
[2] = second table, similar assays, relative to SEQ ID NO: 1
[3] = relative to SEQ ID NO: 1 (=1), concentration for 50% inhibition of target cell lysis

Row | Molecule | EC50 (T cell clone LAU 50/4D7; clone LAU 50/4D7) | IC50 (HLA-A2) | Relative Binding (HLA-A2; [3]) | Relative Binding (HLA-A2; relative to SEQ ID NO: 17 (=1)) | Relative Binding (HLA-A2; [2]) | Relative Recognition (T cell clone LAU 50/4D7; [1]) | Relative Recognition (T cell clone LAU 50/4D7; relative to SEQ ID NO: 17 (=1)) | Relative Recognition (T cell clone LAU 50/4D7; [2]) | % Lysis (T cell clone LAU50/4D7) | recognition by CTL clone LAU 50/4D7 (in words) (T cell clone LAU 50/4D7) | recognition by CTL clone LAU 50/4D7 (in words) (T cell clone LAU 50/4D7; listed as 1) | recognition of known HLA-A2 presented peptides by LAU 50/4D7 (LAU 50/4D7)
1 | AAAPKIFYA [SEQ ID NO: 1] | 0.02 nM | 20 nM | 1 | 10 | – | 1 | 3 | – | – | most active | at least equal to the natural peptide | –
2 | AAGPKIFYA [SEQ ID NO: 2] | 2 nM | 286 nM | 0.07 | 0.7 | – | 0.01 | 0.03 | – | – | – | – | –
3 | GLYDGMEHL [SEQ ID NO: 35, derives from MAGE-A10; HLA-A2; negative control] | – | – | – | – | – | – | – | – | 2% | – | – | –
4 | NY-ESO-1157-165: known HLA-A2 binder peptide | – | – | – | – | – | – | – | – | – | – | – | failed to recognize
5 | gp100208-217: known HLA-A2 binder peptide (TITDQVPFSV; UniProt P40967 208-217, looked up, fragment) | – | – | – | – | – | – | – | – | – | – | – | failed to recognize
6 | gp100280-288: known HLA-A2 binder peptide | – | – | – | – | – | – | – | – | – | – | – | failed to recognize
7 | tyrosinase1-9: known HLA-A2 binder peptide (MLLAVLYCL; UniProt P14679 1-9, looked up, fragment) | – | – | – | – | – | – | – | – | – | – | – | failed to recognize

The next lines start with results.

Row | EC50 (T cell clone LAU 50/4D7; clone LAU 50/4D7) | IC50 (HLA-A2) | Relative Binding (HLA-A2; [3]) | Relative Binding (HLA-A2; relative to SEQ ID NO: 17 (=1)) | Relative Binding (HLA-A2; [2]) | Molecule | Relative Recognition (T cell clone LAU 50/4D7; [1]) | Relative Recognition (T cell clone LAU 50/4D7; relative to SEQ ID NO: 17 (=1)) | Relative Recognition (T cell clone LAU 50/4D7; [2]) | % Lysis (T cell clone LAU50/4D7) | recognition by CTL clone LAU 50/4D7 (in words) (T cell clone LAU 50/4D7) | recognition by CTL clone LAU 50/4D7 (in words) (T cell clone LAU 50/4D7; listed as 1) | recognition of known HLA-A2 presented peptides by LAU 50/4D7 (LAU 50/4D7)
8 | > 100 nM | 100 nM | 0.2 | 2 | 0.2 | CC[C@H](C)[C@H](NC(=O)[C@H](CCCCN)NC(=O)[C@@H]1CCCN1C(=O)[C@H](C)NC(=O)[C@H](C)NC(=O)[C@H](C)N)C(=O)N[C@@H](Cc1ccccc1)C(=O)N[C@@H](C)C(=O)N[C@@H](C)C(=O)O [SEQ ID NO: 6] | 10^−5 | <10^−5 | <10^−5 | – | – | – | –
9 | 0.06 nM | – | – | – | – | CC[C@H](C)[C@H](NC(=O)[C@H](CCCCN)NC(=O)[C@H](CCC(=O)O)NC(=O)[C@H](CO)NC(=O)[C@H](C)NC(=O)[C@@H](N)CCCCN)C(=O)N[C@@H](Cc1ccccc1)C(=O)N[C@@H](Cc1ccc(O)cc1)C(=O)N[C@H](C(=O)O)C(C)C [SEQ ID NO: 17, reference compound] | – | – | – | 70% and 68% | in the same range as that of SEQ ID NO: 1 | – | –
10 | 0.2 nM | 133 nM | 0.16 | 1.5 | 0.16 | AAAAKIFYA [SEQ ID NO: 3] | 0.1 | 0.3 | 0.1 | – | – | – | –
11 | > 100 nM | 22 nM | 0.9 | 9 | 0.9 | AAAPAIFYA [SEQ ID NO: 4] | <10^−5 | <10^−5 | <10^−6 | – | – | – | –
12 | 0.3 nM | 200 nM | 0.1 | 1 | 0.1 | AAAPKAFYA [SEQ ID NO: 5] | 0.05 | 0.2 | 0.06 | – | – | – | –
13 | 0.06 nM | – | – | – | – | AASEKIFYV [SEQ ID NO: 18] | – | 1 | – | – | at least equal to the natural peptide | – | –
